The text below walks through data of EP0665223A1, “Antitumor agent, novel 3(2H)-pyridazinone derivatives and their preparation” (TAKEDA CHEMICAL INDUSTRIES, LTD., priority 1994, dated 1995).

The test system of test [1] is human pancreatic carcinoma cells AsPC-1. Put plainly: Suppressing proliferation of pancreatic carcinoma in vivo (AsPC-1 transplanted subcutaneously into nude mice, tumor volume). The settings on record: once for two days during 14 days, tumor volume of treated group to control group. The arrangement: species or system Balb/c nude mice. The protocol:
The human pancreatic carcinoma cells AsPC-1 (3x10⁶cells) were transplanted subcutaneously into Balb/c nude mice (7 week old) at the flank. On 35th day after the transplantation, the tumor size was measured. Five mice (per group) with almost the same tumor size were employed for the experiment. These groups were respectively administered intraperitoneally with No. 1, 2 and 19 of the compounds of this invention dissolved in corn oil, once for two days during 14 days. On the day following the completion of administration, the tumor size was measured, and the tumor volume was calculated by the formula: Tumor volume = major axis x minor axis x minor axis x (1/2) [formula] . The ratio of the tumor volume in the treated group to that in a control group to which corn oil alone was administered was calculated as a proliferation ratio.

For test [2], the system named is pancreatic cancer cell AsPC-1. The test can be described thus: Suppressing proliferation of pancreatic cancer cell AsPC-1 in vitro (MTT, number of living cells). It counts as cell-based. The conditions noted are these: Homo sapiens, ASPC1, 72 h, AsPC-1, RPMI 1640 medium, incubated 3 days with test compound. The protocol: (§1) A cell suspension of pancreatic cancer cell AsPC-1 (20000/ml) in RPMI 1640 medium (Flow Laboratories) supplemented with 10% of inactivated fetal calf serum, 1 mM of sodium pyruvate and 25 mM of HEPES [2-{4-(2-hydroxyethyl)-1-piperazinyl}ethanesulfonic acid] was added to 96-well micro-culture plates (50ul/well). The culture plates were incubated at 37°C in a 5% CO₂ incubator. On the following day, the solution of each test compound dissolved in dimethylformamide and diluted (3-fold steps) was added (50 ul/well), which was incubated for further 3 days. The culture broth containing the test compounds was eliminated, and the cells were washed, to which was added a solution of MTT pigment, and the number of living cells was calculated [Tada et al. J. Immunol. Methods, 93 p.157 (1986)]. The number of cells in the control group containing no test compound was assumed to be 100%, and the respective ratios of cell numbers in groups containing the respective test compounds were calculated to thereby determine the concentrations (IC₅₀ value) of the respective test compounds necessary to suppress the number of living cells to 50% of that of the control group.

In test [3] the test system is pancreatic cancer cell strain PC-3. Put plainly: Suppressing proliferation of PC-3 cells in vitro (MTT, number of living cells). It counts as cell-based. The conditions noted are these: 96 h, PC-3, F-12K medium, incubated 4 days with test compound. The protocol:
as §1
For the test of pancreatic cancer cell strain PC-3, the same method in the case of AcPC-1 was employed excepting the use of F-12K medium containing 10% inactivated fetal calf serum (Flow Laboratories) and change of the incubation period after adding the test compounds to 4 days, to thereby determine the IC₅₀ value (nm).

Setting [4] is: Dosage 16.7 mg/kg intraperitoneally in corn oil.

Turning to `CC(C)(C)c1ccc(CSc2cnn(C(C)(C)C)c(=O)c2Cl)cc1` [Compound 1, 2-t-butyl-4-chloro-5-(4-t-butyl)benzylthio-3(2H)pyridanzine], the “Proliferation ratio (%)” value in test [1] (Dosage 6.7 mg/kg intraperitoneally in corn oil) is recorded as 56%. In addition, the IC50 in test [2] was 16 nM; in test [3], less than 1.52 nM.
Consider `CC(C)(C)n1ncc(SCc2ccccc2)c(Cl)c1=O` [Compound 2, 2-t-butyl-4-chloro-5-benzylthio-3 (2H)pyridazinone], for which the “Proliferation ratio (%)” value in test [1] (setting [4]) turned out to be 48%. The IC50 is 440 nM in test [2] and 120 nM in test [3].
For `CC(C)(C)c1ccc(COc2cnn(C(C)(C)C)c(=O)c2Cl)cc1` [Compound 19, 2-t-butyl-4-chloro-5-(4-t-butyl)benzyloxy-3(2H)pyridazinone], in that order: 29%, 180 nM and less than 1.52 nM.
Turning to `CC(C)(C)n1ncc(SCc2ccc(-c3csnn3)cc2)c(Cl)c1=O` [Compound 115, 2-t-butyl-4-chloro-5-[4-(1,2,3-thiadiazol-4-yl)benzylthio]-3(2H)-pyridazinone], the IC50 in test [2] was 49 nM; in test [3] it was less than 1.52 nM.
Regarding `CC(C)(C)n1ncc(OCc2ccc(-c3csnn3)cc2)c(Cl)c1=O` [Compound 116, 2-t-butyl-4-chloro-5-[4-(1,2,3-thiadiazol-4-yl)benzyloxy]-3(2H)-pyridazinone], the results for the IC50 in test [2] and in test [3] were 370 nM and 14 nM, respectively.
Turning to `CC(C)(C)n1ncc(SCc2ccc(-c3ncns3)cc2)c(Cl)c1=O` [Compound 117, 2-t-butyl-4-chloro-5-[4-(1,2,4-thiadiazol-5-yl)benzylthio]-3(2H)-pyridazinone], the IC50 in test [2] is 100 nM; in test [3], 2 nM.
The like results for `CC(C)(C)n1ncc(SCc2ccc(-c3cnco3)cc2)c(Cl)c1=O` [Compound 119, 2-t-butyl-4-chloro-5-[4-(1,3-oxazol-5-yl)benzylthio]-3(2H)-pyridazinone] were, in that order, 370 nM and less than 1.52 nM.
